In US5874086A, “Synthesis and use for the treatment of osteoporosis” (Syntex (U.S.A,), Inc., priority 1994, dated 1999):
Where no end group is shown, it is not given here. [ ]: non-standard residue; d: D form. The star is where a group is joined. hSer(lactone) = O=C1OCC[C@@H]1N*

Assays:
ovariectomized rats = test: Effect on bone mass (bone calcium) in ovariectomized rats; assay type: in vivo, Sprague-Dawley female rats
Description: Bone Dis. 5:177 181 (1984).
Adult Sprague-Dawley female rats were acclimatized, weight grouped (n=9, 10 or 12), and subjected to bilateral ovariectomy (OVX) or sham surgery. Dosing was initiated 17 days after surgery and continued for 20 days. Test compound was administered subcutaneously once a day in 2% rat serum/saline vehicle.
After 20 days of dosing, the rats were sacrificed and the right femurs excised. The femurs were cut in half and the distal half femurs (DHF) were further separated into trabecular bone (TB) and cortical bone (CB) by drilling out the trabeculae. Calcium was extracted and measured by Calcette calcium analyzer and expressed as mean bone Ca in mg/DHF/100 g body weight.
The two sample t-test was used to compare OVX and sham groups. One-way ANOVA was used to compare OVX groups, followed by Fisher's LSD multiple comparison to compare each treatment group to vehicle.

[1] = system: ovariectomized adult female rats; conditions: daily subcutaneous injections; cited from earlier work
[2] = system: normal and osteoporotic adult female rats; conditions: daily subcutaneous doses; cited from earlier work
healthy adult male rats = conditions: daily subcutaneous injections for 12 days; cited from earlier work
[3] = 80 μg/kg/day subcutaneously once a day, 20 days of dosing

AVSEHQLLHDKGKSIQDLRRRELLEKLLEKLHTX [Compound 49]
Total Bone Calcium (% increase over OVX) (ovariectomized rats; 40 ug/kg/day, 10 d of dosing): 93%

AVSEHQLLHDKGKSIQDLRRRELLEKLLEKLP-NH2 (AVSEHQLLHDKGKSIQDLRRRELLEKLLEKLP-NH2) [Compound 42]
Total Bone Calcium (% increase over OVX) (ovariectomized rats; 40 ug/kg/day, 5 d of dosing): 60%

AVSEHQLLHDKGKSIQDLRRRELLEKLLEKLHTA-OH [Compound 2]
Total Bone Calcium (% increase over OVX) (ovariectomized rats; [3]): 66-114% | Trabecular Bone Calcium (% increase over OVX) (ovariectomized rats; [3]): 87-102%

AVSEHQLLHDKGKSIQDLRRRELLEKLLEKLHTX (AVSEHQLLHDKGKSIQDLRRRELLEKLLEKLHT[hSer(lactone)]) [Compound 4, X = hSerlac; homoserine lactone peptide]
Total Bone Calcium (% increase over OVX) (ovariectomized rats; 40 ug/kg/day, 5 d of dosing): 55% | Total Bone Calcium (% increase over OVX) (ovariectomized rats; 40 ug/kg/day, 10 d of dosing): 79% | Total Bone Calcium (% increase over OVX) (ovariectomized rats; 40 ug/kg/day, 20 d of dosing): 79-105% | Total Bone Calcium (% increase over OVX) (ovariectomized rats; [3]): 88-114%

hPTH(1-34): N-terminal (1-34) fragment of human parathyroid hormone (SVSEIQLMHNLGKHLNSMERVEWLRKKLQDVHNF; Parathyroid hormone; UniProt P01270 32-65, looked up, fragment)
Loss of trabecular bone after ovariectomy [1]: completely reversed the loss of trabecular bone | Whole body calcium and ash weight of individual bones [2]: increased | Trabecular and cortical bone calcium and dry weight (healthy adult male rats): increased

B1: bPTH(1-84): bovine parathyroid hormone, single polypeptide chain of 84 amino acid residues (protein, UniProt P01268 32-115, looked up)
Parathyroid hormone: AVSEIQFMHNLGKHLSSMERVEWLRKKLQDVHNFVALGASIAYRDGSSQRPRKKEDNVLVESHQKSLGEADKADVDVLIKAKPQ
modifications: Parathyroid hormone
notes: bovine parathyroid hormone, single polypeptide chain of 84 amino acid residues
Whole body calcium and ash weight of individual bones [2]: increased
